Data on two compounds can be found in patent US10933113B2, “Use of a compound, pharmaceutical composition, and therapeutic method for the treatment or prevention of convulsions” (PROTEIMAX BIO[…]A, priority 2016, dated 2021).

In the data set the test system is pilocarpine model. Nature of the data set: pilocarpine model, oral test compound 10 minutes before intraperitoneal pilocarpine. The data set is classed as in vivo, Mus musculus or mouse. The procedure: In some instances, the anticonvulsive effects of the composition of the invention have been evaluated in vivo upon oral administration to animals. The pharmaceutical composition of the invention was administered to mammals (Mus musculus or mouse) with oral dose of treatment, as compared to other compounds or to saline control. In these experiments, the test compounds were administered orally 10 minutes prior to the (intraperitoneal) administration of pilocarpine. Pilocarpine hydrochloride (320 mg/kg, Merck), dissolved in 0.9% sterile saline, was given intraperitoneally for induction of SE (status epileticus) (Turski et al., 1983). In the Turski model, the neurotoxic effects begin about 15-25 minutes after the injection of Pilo, with the occurrence of motor and limbic seizures, the animals evolving to a state of continuous (clonic) seizures that characterize SE Sanabria and Cavalheiro, 2000).
In this embodiment, the anticonvulsant effect of the composition of the invention prepared according to example 1 was evaluated by prior administration of the inventive composition and subsequent administration of pilocarpine to animals. Administration of pilocarpine leads to severe brain damage, neurotoxicity, and usually culminates in the death of animals.
The composition of the invention prepared according to Example 1 was pre-administered to the animals.

[1] abbreviates: 1000 μg/kg oral, group n=5, pilocarpine 320 mg/kg i.p.

In the case of `CC(C)C[C@H](NC(=O)[C@H](Cc1ccccc1)NC(=O)[C@H](CCCCN)NC(=O)[C@H](Cc1ccccc1)NC(=O)[C@H](CC(N)=O)NC(=O)[C@@H](NC(=O)[C@@H]1CCCN1)C(C)C)C(=O)N[C@@H](CO)C(=O)N[C@@H](Cc1cnc[nH]1)C(=O)O` [Hp, PVNFKFLSH], where the note is “600 μg/kg oral”, the “survival time compared with control (FIG. 1)” value is recorded as “not statistically significant”. Also, under setting [1], the “number of animals that died in the group” value is recorded as “one” and the “remaining animals that remained alive for more than a week” value amounted to 4. In addition, the “mean survival time for the group” value (1000 μg/kg oral, versus control, Hp 600 μg/kg, DIIADDEPLT 1000 μg/kg) is “significantly different and higher than the others”. Further, the “occurrence of typical side effects of other anticonvulsants, such as prostration and nasal bleeding” value (oral administration, mice) was “has not been observed”. Also, the “brain injury related symptoms and survival after pilocarpine” value (prior oral administration of the composition of Example 1) was “the vast majority of the animals subjected to these experiments had no brain injury related symptoms and survived without apparent damage”. Where the note is “prior oral administration, pilocarpine-induced salivation”, the “time for the occurrence of the first salivation (FIG. 4)” value is “substantial change in the time profile for the occurrence of the first salivation”. The “time for the occurrence of the first seizure (FIG. 6), P vs Control, Hp 600 μg/kg, Pep19 1000 μg/kg” value (starred group, by exclusion Hp 1000 μg/kg oral) was less than 0.001.

For “DIIADDEPLT [peptide used as another control, reference compound]”, the “survival time compared with control (FIG. 1)” value (1000 μg/kg oral) is listed as “not statistically significant”.
